Reference: US8663646B2, “P53 peptide vaccine” (priority 2007, dated 2014)
Read-outs that look alike come from different tables or passages of the source. Where no end group is shown, it is not given here.

Experiments:
HLA-A*0101 [1] = target: T1, HLA-A*0101 (Homo sapiens, UniProt P04439, A114D/A174V/A182V/D101N/D185E/E176A/E190D/L180R/Q94H/R68K/S129P/T187R/V100A/V91M/W191G); assay: Stability of peptide-HLA complex, binding at 4° C. and 20° C., HLA-A*0101; conditions: for HLA binding Stability (Table 5): HLA type A1; for Peptide Binding Stability: HLA-A*0101, IC50 at 20° C. vs 4° C.
T1 construct: B-cell lines used are: CAA (A*0101), EKR (A*0301), BVR (A*1101), VIJF (A*2401); endogenous in cells; host or cells: B-cell line CAA

HLA-A*0101 [2] = target: T1, HLA-A*0101; assay: Competition based cellular binding assay, HLA-A*0101 (B-cell line CAA)
[3] = target: T2, 20S immuno-proteasomes from human B-LCL cell line (JY) (Homo sapiens, UniProt P28062+P28065+P40306); conditions: PRAME peptides (Kessler J H et al 2001); cited from earlier work
T2 construct: purified from a mouse B-cell line (RMA) and a human B-LCL cell line (JY); endogenous in cells; host or cells: B-LCL JY cells; 20S proteasome purified from them

[4] = target: T3, 20S household proteasomes from human tumor cell line (HeLa) (Homo sapiens, UniProt P28072+P28074+Q99436); assay: In vitro proteasome mediated digestion of 30-mers, mass spectrometry, household proteasome HeLa; assay type: biochemical; conditions: 30 residue long precursor peptides
T3 construct: 20S household proteasomes were purified from human tumor cell line (HeLa); endogenous in cells; host or cells: HeLa cells; 20S proteasome purified from them
Experimental: (§1) In the context of the invention, “being inefficiently processed by a proteasome” preferably means that within the first hour of digestion by a proteasome less than 1% of total digested peptide is found. The processing by a proteasome is preferably assessed by incubating a purified proteasome, more preferably a human proteasome with a peptide comprising the potential CTL epitope (30 amino acid length approximately) in a proteasome digestion buffer during at least one hour at 37° C. The reaction is subsequently stopped by adding trifluoroacetic acid. Analysis of the digested peptides is performed with electrospray ionization mass spectrometry (see example 1). Even more preferably, the human proteasome is an immunoproteasome from B-LCL JY cells (Kessler J H et al. 2001).
(§2) 20S immuno-proteasomes were purified from a mouse B-cell line (RMA) and a human B-LCL cell line (JY) and 20S household proteasomes were purified from human tumor cell line (HeLa) as described (Kessler J H et al 2001). To assess kinetics, digestions were performed with different incubation periods as indicated. Briefly, peptides containing the (potential) CTL epitopes (30 mers, 20 μg) were incubated with 1 μg of purified proteasome at 37° C. for 1 h, 4 h and 24 h in 300 μl proteasome digestion buffer, trifluoroacetic acid (30 μl) was added to stop the digestion and samples were stored at −20° C. before mass spectrometric analysis. Electrospray ionization mass spectrometry was performed on a hybrid quadrupole time-of-flight mass spectromter, a Q-TOF (Micromass), equipped with an on-line nanoelectrospray interface with an approximate flow rate of […] as described (Kessler J H et al 2001). The peaks in the mass spectrum were searched in the digested precursor peptide using the Biolynx/proteins software (Micromass) supplied with the mass spectrometer. The intensity of the peaks in the mass spectra was used to establish the relative amounts of peptides generated after proteasome digestion. The relative amounts of the peptides are given as a percentage of the total amount of peptide digested by the proteasome at the indicated incubation time. Major cleavage sites are defined as more than >1% of total digested peptide within the first hour.

[5] = target: T2, 20S immuno-proteasomes from human B-LCL cell line (JY); assay: In vitro proteasome mediated digestion of 30-mers, mass spectrometry, immunoproteasome JY; assay type: biochemical; conditions: 30 residue long precursor peptides
In short: (§3)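 30-mer peptides (20 μg) digested with 1 μg purified 20S proteasome (JY or RMA immunoproteasome, HeLa household proteasome) at 37° C for 1, 4 and 24 h, stopped with TFA. Nano-ESI Q-TOF MS; fragments quantified by peak intensity as percent of total digested peptide per time point; major cleavage site >1% within first hour.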

[6] = target: T4, 20S immuno-proteasomes from mouse B-cell line (RMA) (Mus musculus, UniProt O35955+P28063+P28076); assay: In vitro proteasome mediated digestion of 30-mers, mass spectrometry, immunoproteasome RMA; assay type: biochemical; conditions: 30 residue long precursor peptides
T4 construct: 20S immuno-proteasomes were purified from a mouse B-cell line (RMA); endogenous in cells; host or cells: RMA cells; 20S proteasome purified from them
In short: as §3

HLA-A*0201 = HLA-A*0201 (Homo sapiens, UniProt P04439, D140Y/D185E/D98H/E176V/E277Q/G131W/G231S/I119V/I121R/I166T/I218V/L300P/L318F/N151K/N90K/P208A/P217A/Q86G/Q94H/R138H/R169H/T345S); assay: Peptide stabilization for HLA-A*0201; assay type: binding; conditions: for Peptide Binding Stability: HLA-A*0201, p53 peptides
proteasome = assay: Proteasome processing, summarised over proteasome types (Table 5); assay type: biochemical; conditions: 30 residue long precursor peptides
Experimental: as §1, §2

HLA-A*2401 [7] = assay: Competition based cellular binding assay, HLA-A*2401 (B-cell line VIJF); design: species or system human; conditions: HLA-A*2401, IC50 category
HLA-A*2401 [8] = assay: Stability of peptide-HLA complex, binding at 4° C. and 20° C., HLA-A*2401; design: species or system human; conditions: HLA-A*2401; IC50 at 20° C. vs 4° C.
Experimental: Stability of other peptide-HLA complexes was preferably determined as follows. […] Peptides of >50% of the initial complexes was lost within 2 hours were considered unstable. […] The rest was designated as unstable peptide binding.
Peptides 8-11 residues in length were selected based on typical anchor residues for HLA-A*0101, A*0301, A*1101 and HLA-A*2401 (Rammensee H G et al). The capacity of peptides to bind was tested in a competition based cellular binding assay as previously described (van der Burg S H et al 1995). FL-labeled reference peptides were synthesized as Cys-derivative (van der Burg S H et al 1995). Fluorescence labeled reference peptides used were: YLEPAC(FL)AK (SEQ ID NO: 87) (HLA-A*0101) and KVFPC(FL)ALINK (SEQ ID NO: 88) (HLA-A*1101) (Sette A et al), KVFPC(FL)ALINK (SEQ ID NO: 89) (HLAA*0301) (van der Burg S H et al 1995) and RYLKC(FL)QQLL (SEQ ID NO: 90) (A*2401) (Dai L C et al). B-cell lines used are: CAA (A*0101), EKR (A*0301), BVR (A*1101), VIJF (A*2401). The relative binding capacity of the peptides is expressed as the peptide concentration to inhibit 50% (1050) of the binding of the reference peptide. […] Peptide stabilization for HLA-A*0201 was performed as previously described (van der Burg S H et al, 1996). Peptides of >50% of the initial complexes was lost within 2 hours were considered unstable. Stability of other peptide-HLA complexes was determined as follows. Peptide binding was performed at 4° C. and 20° C. and 1050 were determined. […] The rest was designated as unstable peptide binding.

HLA-A*0301 = target: T5, HLA-A*0301 (Homo sapiens, UniProt P04439); assay: Stability of peptide-HLA complex, binding at 4° C. and 20° C., HLA-A*0301
T5 construct: B-cell lines used are: CAA (A*0101), EKR (A*0301), BVR (A*1101), VIJF (A*2401); endogenous in cells; host or cells: B-cell line EKR
In short: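 Competition binding used B-cell lines CAA (A*0101), EKR (A*0301), BVR (A*1101) and VIJF (A*2401) against fluorescein-labelled reference peptides. IC50 is the peptide concentration inhibiting 50% of reference binding. Binding was run at 4 °C and 20 °C with IC50 determined at each; complexes losing >50% within 2 hours were deemed unstable.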

[9] = HLA-A*0101, IC50 category, read-out: Peptide Binding Affinity

## CC[C@H](C)[C@H](NC(=O)[C@@H](NC(=O)[C@@H](NC(=O)[C@@H](N)CS)[C@@H](C)O)[C@@H](C)O)C(=O)N[C@@H](Cc1c[nH]cn1)C(=O)N[C@@H](Cc1ccc(O)cc1)C(=O)N[C@@H](CC(N)=O)C(=O)N[C@@H](Cc1ccc(O)cc1)C(=O)O [p53 229-236]
HLA-A*0101 [1]
  HLA binding Stability (Table 5): − (The rest was designated as unstable peptide binding.)
  Peptide Binding Stability: − (The rest was designated as unstable peptide binding.)
HLA-A*0101 [2]; HLA type A1, read-out: HLA binding Affinity (Table 5)
  IC50: 15 to 50 µM
HLA-A*0101 [2]; [9]
  IC50: 5 to 15 µM

## SLLQHLIGL [PRA 425-433]
[3]
  Proteasomal Cleavage of C-terminus, IP (JY): + (Major cleavage sites are defined as more than >1% of total digested peptide within the first hour)

## CC(C)[C@H](NC(=O)[C@H](CCCNC(=N)N)NC(=O)[C@@H](NC(=O)CNC(=O)[C@@H]1CCCN1C(=O)[C@@H]1CCCN1C(=O)[C@@H]1CCCN1C(=O)[C@@H](NC(=O)[C@@H](N)CO)[C@@H](C)O)[C@@H](C)O)C(=O)O [p53 149-157]
[4]
  Proteasomal Cleavage of C-terminus, HH (HeLa): + (Major cleavage sites are defined as more than >1% of total digested peptide within the first hour)
[5]
  Proteasomal Cleavage of C-terminus, IP (JY): + (Major cleavage sites are defined as more than >1% of total digested peptide within the first hour)
[6]
  Proteasomal Cleavage of C-terminus, IP (RMA): + (Major cleavage sites are defined as more than >1% of total digested peptide within the first hour)
HLA-A*0201
  capacity to form stable peptide-HLA-A*0201 complexes, in words: weak
  Peptide Binding Stability: <2 h
HLA-A*0201; HLA type A2, class symbol
  HLA binding Stability (Table 5): − (Peptides of >50% of the initial complexes was lost within 2 hours were considered unstable)
proteasome
  generation / processing by household and immunoproteasomes, in words: efficiently generated

## CSCC[C@H](NC(=O)[C@H](CCCCN)NC(=O)[C@H](CC(N)=O)NC(=O)[C@H](CC(C)C)NC(=O)[C@H](C)NC(=O)[C@@H]1CCCN1C(=O)[C@H](CO)NC(=O)[C@H](Cc1ccc(O)cc1)NC(=O)[C@@H](N)[C@@H](C)O)C(=O)N[C@@H](Cc1ccccc1)C(=O)O [p53 125-134]
HLA-A*2401 [7]
  Peptide Binding Affinity: high
HLA-A*2401 [7]; read-out: Peptide Binding Affinity
  IC50: < 5 µM
proteasome
  generation / processing by household and immunoproteasomes, in words: not/inefficiently processed
HLA-A*2401 [8]
  Peptide Binding Stability: + (Stable peptides displayed IC50 at 20 °C that deviated <2 times of the IC50 at 4° C.)

## CC(C)[C@H](NC(=O)[C@H](CO)NC(=O)[C@H](CCCCN)NC(=O)[C@H](C)NC(=O)[C@@H](NC(=O)CN)[C@@H](C)O)C(=O)N[C@H](C(=O)N[C@@H](CS)C(=O)N[C@H](C(=O)N[C@@H](Cc1ccc(O)cc1)C(=O)O)[C@@H](C)O)[C@@H](C)O [p53 117-126]
HLA-A*0101 [1]
  HLA binding Stability (Table 5): + (Stable peptides displayed IC50 at 20 °C that deviated <2 times of the IC50 at 4° C.)
  Peptide Binding Stability: + (Stable peptides displayed IC50 at 20 °C that deviated <2 times of the IC50 at 4° C.)
HLA-A*0301; HLA type A3
  HLA binding Stability (Table 5): − (The rest was designated as unstable peptide binding.)
HLA-A*0301; HLA-A*0301, IC50 at 20° C. vs 4° C.
  Peptide Binding Stability: − (The rest was designated as unstable peptide binding.)

## CC(C)C[C@H](NC(=O)[C@@H](N)CC(C)C)C(=O)NCC(=O)N[C@@H](CCCNC(=N)N)C(=O)N[C@@H](CC(N)=O)C(=O)N[C@@H](CO)C(=O)N[C@@H](Cc1ccccc1)C(=O)N[C@@H](CCC(=O)O)C(=O)N[C@H](C(=O)O)C(C)C [p53 264-272]
proteasome
  generation / processing by household and immunoproteasomes, in words: not well processed

## YLDDRNTFRH [p53 205-214]
HLA-A*0101 [1]
  HLA binding Stability (Table 5): + (Stable peptides displayed IC50 at 20 °C that deviated <2 times of the IC50 at 4° C.)
  Peptide Binding Stability: + (Stable peptides displayed IC50 at 20 °C that deviated <2 times of the IC50 at 4° C.)
HLA-A*0101 [2]; HLA type A1
  HLA binding Affinity (Table 5): int
HLA-A*0101 [2]; [9]
  IC50: 5 to 15 µM

## CC[C@H](C)[C@H](NC(=O)[C@H](CC(C)C)NC(=O)[C@H](Cc1c[nH]cn1)NC(=O)[C@H](CCC(N)=O)NC(=O)[C@@H]1CCCN1C(=O)[C@@H]1CCCN1C(=O)[C@H](C)NC(=O)[C@H](CC(C)C)NC(=O)CN)C(=O)N[C@@H](CCCNC(=N)N)C(=O)N[C@H](C(=O)O)C(C)C [p53 187-197]
[4]
  Proteasomal Cleavage of C-terminus, HH (HeLa): + (Major cleavage sites are defined as more than >1% of total digested peptide within the first hour)
[5]
  Proteasomal Cleavage of C-terminus, IP (JY): + (Major cleavage sites are defined as more than >1% of total digested peptide within the first hour)
[6]
  Proteasomal Cleavage of C-terminus, IP (RMA): + (Major cleavage sites are defined as more than >1% of total digested peptide within the first hour)
HLA-A*0201
  capacity to form stable peptide-HLA-A*0201 complexes, in words: forms stable peptide-HLA complexes
  Peptide Binding Stability: 6 h
proteasome
  generation / processing by household and immunoproteasomes, in words: efficiently generated
